SMILES strings stand for the structures.

Dmax and DC50 data for eleven compounds are collected here from US20250206732A1, “COMPOUNDS AND METHODS FOR THE TARGETED DEGRADATION OF KRAS” (Arvinas Operations, Inc., priority 2022, published 2025).

For the test, the target named is T1, AsPC-1 HiBiT-KRASG12D (Homo sapiens, UniProt P01116, G12D).
T1 construct: insert the HiBiT tag onto the N-terminus of one or more of the endogenous KRAS alleles; endogenous in cells; host or cells: AsPC-1 (ATCC CRL-1682), CRISPR-Cas9 knock-in clone, one tagged allele
Nature of the test: HiBiT degradation assay (G12D), AsPC-1 HiBiT-KRASG12D cells. It counts as cell-based. The conditions noted are these: 24 hours treatment; for Dmax: ASPC1, AsPC-1 HiBiT-KRASG12D cells, maximum degradation observed; for DC50: AsPC-1 HiBiT-KRASG12D cells, HiBiT luminescence. In a few lines:
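24 h cmpd treatment, 37° C/5% CO2, AsPC-1 HiBiT-KRASG12D clone (CRISPR N-term tag). Alamar blue 1×, 4 h, fluorescence. PBS wash, Nano-Glo HiBiT lytic reagent, 45 min RT, luminescence. Triplicates.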
(With HiBiT, luminescence reflects the tagged protein that the partner subunit can reach.)

T1 sequence (P01116 1-188 isoform P01116-2 G12D): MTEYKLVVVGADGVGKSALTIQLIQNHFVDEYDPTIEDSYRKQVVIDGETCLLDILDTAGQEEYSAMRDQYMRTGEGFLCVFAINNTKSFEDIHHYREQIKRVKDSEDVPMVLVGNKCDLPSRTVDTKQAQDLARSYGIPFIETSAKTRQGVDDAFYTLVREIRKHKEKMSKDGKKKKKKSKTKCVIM

In general, Dmax refers to the largest share of the target that was removed. Read a high Dmax as a fuller loss of target. By DC50 is commonly meant the concentration giving 50% degradation. In turn, `C#Cc1c(F)ccc2cc(O)cc(-c3ncc4c(N5CC6CCC(C5)N6)nc(OCCN5CCC(F)(CN6CCN(c7cc([C@H](C(=O)N8C[C@H](O)C[C@H]8C(=O)N[C@@H](C)c8ccc(-c9ccnn9C)cc8)C(C)C)on7)CC6)CC5)nc4c3F)c12` [Compound 198, (2S,4R)-1-[(2R)-2-(3-{4-[(1-{2-[(4-{3,8-diazabicyclo[3.2.1]octan-3-yl}-7-(8-ethynyl-7-fluoro-3-hydroxynaphthalen-1-yl)-8-fluoropyrido[4,3-d]pyrimidin-2-yl)oxy]ethyl}-4-fluoropiperidin-4-yl)methyl]piperazin-1-yl}-1,2-oxazol-5-yl)-3-methylbutanoyl]-4-hydroxy-N-[(1S)-1-[4-(1-methyl-1H-pyrazol-5-yl)phenyl]ethyl]pyrrolidine-2-carboxamide] showed a maximal degradation (Dmax) of 80 to 100% and a DC50 of less than 600 nM.
`CCc1cccc2cc(O)cc(-c3ncc4c(N5CC6CCC(C5)N6)nc(OCCN5CCC(F)(CN6CCN(c7cc([C@H](C(=O)N8C[C@H](O)C[C@H]8C(=O)N[C@@H](C)c8ccc(-c9ccnn9C)cc8)C(C)C)on7)CC6)CC5)nc4c3F)c12` [Compound 199, (2S,4R)-1-[(2R)-2-(3-{4-[(1-{2-[(4-{3,8-diazabicyclo[3.2.1]octan-3-yl}-7-(8-ethyl-3-hydroxynaphthalen-1-yl)-8-fluoropyrido[4,3-d]pyrimidin-2-yl)oxy]ethyl}-4-fluoropiperidin-4-yl)methyl]piperazin-1-yl}-1,2-oxazol-5-yl)-3-methylbutanoyl]-4-hydroxy-N-[(1S)-1-[4-(1-methyl-1H-pyrazol-5-yl)phenyl]ethyl] pyrrolidine-2-carboxamide] yielded a Dmax of 80 to 100% and a 50% degradation concentration (DC50) of less than 600 nM.
The compound `CCc1cccc2cc(O)cc(-c3ncc4c(N5CC6CCC(C5)N6)nc(OCCN5CCC(F)(CN6CCN(c7cc([C@H](C(=O)N8C[C@H](O)C[C@H]8C(=O)N[C@@H](C)c8ccc(-c9scnc9C)cc8)C(C)C)on7)C[C@H]6C)CC5)nc4c3F)c12` [Compound 200, (2S,4R)-1-[(2R)-2-{3-[(3R)-4-[(1-{2-[(4-{3,8-diazabicyclo[3.2.1]octan-3-yl}-7-(8-ethyl-3-hydroxynaphthalen-1-yl)-8-fluoropyrido[4,3-d]pyrimidin-2-yl)oxy]ethyl}-4-fluoropiperidin-4-yl)methyl]-3-methylpiperazin-1-yl]-1,2-oxazol-5-yl}-3-methylbutanoyl]-4-hydroxy-N-[(1S)-1-[4-(4-methyl-1,3-thiazol-5-yl)phenyl]ethyl]pyrrolidine-2-carboxamide] had a Dmax of 60 to 80% and a DC50 of less than 600 nM.
With `CCc1cccc2cc(O)cc(-c3ncc4c(N5CC6CCC(C5)N6)nc(OCCN5CCC(CN6CCN(c7cc([C@@H](C(=O)N8C[C@H](O)C[C@H]8C(=O)N[C@@H](C)c8ccc(-c9ccnn9C)cc8)C(C)C)on7)CC6)CC5)nc4c3F)c12` [Compound 201, (2S,4R)-1-[(2S)-2-(3-{4-[(1-{2-[(4-{3,8-diazabicyclo[3.2.1]octan-3-yl}-7-(8-ethyl-3-hydroxynaphthalen-1-yl)-8-fluoropyrido[4,3-d]pyrimidin-2-yl)oxy]ethyl}piperidin-4-yl)methyl]piperazin-1-yl}-1,2-oxazol-5-yl)-3-methylbutanoyl]-4-hydroxy-N-[(1S)-1-[4-(1-methyl-1H-pyrazol-5-yl)phenyl]ethyl]pyrrolidine-2-carboxamide], the DC50 is more than 3000 nM.
Turning to `CCc1cccc2cc(O)cc(-c3ncc4c(N5CC6CCC(C5)N6)nc(OCCN5CCC(CC6CCN(c7cc([C@H](C(=O)N8C[C@H](O)C[C@H]8C(=O)N[C@@H](C)c8ccc(-c9ccnn9C)cc8)C(C)C)on7)CC6)CC5)nc4c3F)c12` [Compound 202, (2S,4R)-1-[(2R)-2-(3-{4-[(1-{2-[(4-{3,8-diazabicyclo[3.2.1]octan-3-yl}-7-(8-ethyl-3-hydroxynaphthalen-1-yl)-8-fluoropyrido[4,3-d]pyrimidin-2-yl)oxy]ethyl}piperidin-4-yl)methyl]piperidin-1-yl}-1,2-oxazol-5-yl)-3-methylbutanoyl]-4-hydroxy-N-[(1S)-1-[4-(1-methyl-1H-pyrazol-5-yl)phenyl]ethyl]pyrrolidine-2-carboxamide], the Dmax was 80 to 100% and the DC50 was less than 600 nM.
Taken in the same sequence, the figures for `CCc1cccc2cc(O)cc(-c3ncc4c(N5CC6CCC(C5)N6)nc(OCCN5CCC(F)(CN6CCN(c7cc([C@@H](C(=O)N8C[C@H](O)C[C@H]8C(=O)N[C@@H](C)c8ccc(-c9scnc9C)cc8)C(C)C)on7)[C@@H](C)C6)CC5)nc4c3F)c12` [Compound 203, (2S,4R)-1-[(2S)-2-{3-[(2S)-4-[(1-{2-[(4-{3,8-diazabicyclo[3.2.1]octan-3-yl}-7-(8-ethyl-3-hydroxynaphthalen-1-yl)-8-fluoropyrido[4,3-d]pyrimidin-2-yl)oxy]ethyl}-4-fluoropiperidin-4-yl)methyl]-2-methylpiperazin-1-yl]-1,2-oxazol-5-yl}-3-methylbutanoyl]-4-hydroxy-N-[(1S)-1-[4-(4-methyl-1,3-thiazol-5-yl)phenyl]ethyl]pyrrolidine-2-carboxamide] were 20 to 60% and 1000 to 3000 nM.
For `CCc1cccc2cc(O)cc(-c3ncc4c(N5CC6CCC(C5)N6)nc(OCCN5CCC(O)(CC6CCN(c7cc([C@H](C(=O)N8C[C@H](O)C[C@H]8C(=O)N[C@@H](C)c8ccc(-c9scnc9C)cc8)C(C)C)on7)CC6)CC5)nc4c3F)c12` [Compound 204, (2S,4R)-1-[(2R)-2-(3-{4-[(1-{2-[(4-{3,8-diazabicyclo[3.2.1]octan-3-yl}-7-(8-ethyl-3-hydroxynaphthalen-1-yl)-8-fluoropyrido[4,3-d]pyrimidin-2-yl)oxy]ethyl}-4-hydroxypiperidin-4-yl)methyl]piperidin-1-yl}-1,2-oxazol-5-yl)-3-methylbutanoyl]-4-hydroxy-N-[(1S)-1-[4-(4-methyl-1,3-thiazol-5-yl)phenyl]ethyl]pyrrolidine-2-carboxamide] the same measures were 80 to 100% and less than 600 nM.
In turn, `CCc1cccc2cc(O)cc(-c3ncc4c(N5CC6CCC(C5)N6)nc(OCCN5CCC(O)(CC6CCN(c7cc([C@@H](C(=O)N8C[C@H](O)C[C@H]8C(=O)N[C@@H](C)c8ccc(-c9scnc9C)cc8)C(C)C)on7)CC6)CC5)nc4c3F)c12` [Compound 205, (2S,4R)-1-[(2S)-2-(3-{4-[(1-{2-[(4-{3,8-diazabicyclo[3.2.1]octan-3-yl}-7-(8-ethyl-3-hydroxynaphthalen-1-yl)-8-fluoropyrido[4,3-d]pyrimidin-2-yl)oxy]ethyl}-4-hydroxypiperidin-4-yl)methyl]piperidin-1-yl}-1,2-oxazol-5-yl)-3-methylbutanoyl]-4-hydroxy-N-[(1S)-1-[4-(4-methyl-1,3-thiazol-5-yl)phenyl]ethyl]pyrrolidine-2-carboxamide] gave a Dmax of 20 to 60% and a DC50 of 1000 to 3000 nM.
`C#Cc1c(F)ccc2cc(O)cc(-c3ncc4c(N5CC6CCC(C5)N6)nc(OCCN5CCC(CN6CCN(c7cc([C@H](C(=O)N8C[C@H](O)C[C@H]8C(=O)N[C@@H](C)c8ccc(-c9scnc9C)cc8)C(C)C)on7)CC6)CC5)nc4c3F)c12` [Compound 206, (2S,4R)-1-[(2R)-2-(3-{4-[(1-{2-[(4-{3,8-diazabicyclo[3.2.1]octan-3-yl}-7-(8-ethynyl-7-fluoro-3-hydroxynaphthalen-1-yl)-8-fluoropyrido[4,3-d]pyrimidin-2-yl)oxy]ethyl}piperidin-4-yl)methyl]piperazin-1-yl}-1,2-oxazol-5-yl)-3-methylbutanoyl]-4-hydroxy-N-[(1S)-1-[4-(4-methyl-1,3-thiazol-5-yl)phenyl]ethyl]pyrrolidine-2-carboxamide] came in with a Dmax of 80 to 100% and a DC50 of less than 600 nM.
As to `CCc1cccc2cc(O)cc(-c3ncc4c(N5CCCCCC5)nc(OC[C@]56CCCN5[C@H](COc5cc([C@@H](C(=O)N7C[C@H](O)C[C@H]7C(=O)N[C@@H](C)c7ccc(-c8scnc8C)cc7)C(C)C)on5)CC6)nc4c3F)c12` [Compound 207, (2S,4R)-1-[(2S)-2-(3-{[(3S,7aR)-7a-({[4-(azepan-1-yl)-7-(8-ethyl-3-hydroxynaphthalen-1-yl)-8-fluoropyrido[4,3-d]pyrimidin-2-yl]oxy}methyl)-hexahydro-1H-pyrrolizin-3-yl]methoxy}-1,2-oxazol-5-yl)-3-methylbutanoyl]-4-hydroxy-N-[(1S)-1-[4-(4-methyl-1,3-thiazol-5-yl)phenyl]ethyl]pyrrolidine-2-carboxamide], the DC50 is more than 3000 nM.
In the case of `CCc1cccc2cc(O)cc(-c3ncc4c(N5CCCCCC5)nc(OC[C@]56CCCN5[C@H](COc5cc([C@H](C(=O)N7C[C@H](O)C[C@H]7C(=O)N[C@@H](C)c7ccc(-c8scnc8C)cc7)C(C)C)on5)CC6)nc4c3F)c12` [Compound 208, (2S,4R)-1-[(2R)-2-(3-{[(3S,7aR)-7a-({[4-(azepan-1-yl)-7-(8-ethyl-3-hydroxynaphthalen-1-yl)-8-fluoropyrido[4,3-d]pyrimidin-2-yl]oxy}methyl)-hexahydro-1H-pyrrolizin-3-yl]methoxy}-1,2-oxazol-5-yl)-3-methylbutanoyl]-4-hydroxy-N-[(1S)-1-[4-(4-methyl-1,3-thiazol-5-yl)phenyl]ethyl]pyrrolidine-2-carboxamide], the Dmax lay in the range of 80 to 100% and the DC50 is less than 600 nM.
